# Reference: patent US11241455B2, “Methods of treating disease by metabolic control of T-cell differentiation” (The J. David Gladstone Institutes, a testamentary trust …, priority 2016, dated 2022)
# Key:
# [1] = test system: FOXP3 mRNA in iTreg cells; assay: mRNA expression analysis by qRT-PCR in iTreg cells; type: cell-based, mouse; details: normalized to β-actin
# Procedure: (§1) At the end of differentiation (day 6), T cells were re-stimulated with plate-coated anti-CD3 and anti-CD28 for 5 hours in the absence of any small-molecule compounds or metabolites. Quantitative reverse transcriptase polymerase chain reaction (qRT-PCR) was performed to evaluate mRNA expression of FOXP3, Il17, Il17f, and Rorc. For differentiating TH17 or iTreg cells, cells were collected on day 2.5 or at the indicated time for mRNA expression analysis. The expression was normalized to β-actin.
# [2] = test system: differentiating TH17 cells; assay: TH17 differentiation of CD4 naïve T cells (IL17F-RFP/FOXP3-GFP reporter or intracellular staining of IL-17 and FOXP3); type: cell-based, mouse; details: for rescue of the inhibitory effect of AOA on TH17 cell differentiation: in the presence of AOA, day 6, 0.75 mM α-KG, 0.5 mM 2-HG, 0.5 mM succinate, 50 μM fumarate, 0.5 mM malate, 0.5 mM citrate, 1 mM NAC, 1 mM GSH
# Procedure: (§2) CD4 naïve T cells (CD4+CD25-CD62^highCD44^low) were obtained from interleukin (IL)-17F-red fluorescent protein (RFP)/FOXP3-green fluorescent protein (GFP) mice, which were characterized previously, or wild-type C57/BL6 mice, by cell sorting. 0.4 million cells were plated into 48 wells coated with anti-mouse CD3 (clone 145-2C11, eBioscience) […] and anti-mouse CD28 (clone 37.51, eBioscience) (1 μg/ml). The differentiation media for these naïve T cells was as follows: 0.5 ng/ml (or indicated) transforming growth factor (TGF) β, 200 U/ml mouse IL-2, 2 μg/ml anti-interferon (IFN) γ and 2 μg/ml anti-mouse IL4 for differentiation into iTreg cells; and 2.5 ng/ml TGFβ, 10 ng/ml mouse IL-1β, 10 ng/ml mouse IL-6, 10 ng/ml mouse IL-23, 2 μg/ml anti-mouse IFNγ, and anti-mouse IL-4 for differentiating into TH17 cells. The cells were supplemented with new medium at day 4. In cases in which small-molecule compounds were present, the fresh medium containing the same concentration of compounds was used. When necessary, the individual metabolite was added into the T-cell culture 6 hours later after initial cell plating. On day 6, the cells were analyzed for IL17F-RFP and FOXP3-GFP or the cells were collected and restimulated for 4-6 hours with PMA, inomycin, and Golgi-stop for intracellular staining in absence of indicated compounds.
# To identify small molecules that regulate cell-fate switching of TH17/iTreg cells and to further understand the regulation of the TH17/iTreg balance, 10,000 individual small molecules were phenotypically screened using CD4 naïve T cells from IL-17F-RFP/FOXP3-GFP mice. The naïve T cells were cultured under optimal TH17 differentiation conditions and compounds that could reprogram TH17 differentiation toward iTreg cell fate were identified using the reporter readout. Briefly, after TH17 differentiation for 24 hours, compounds were added to TH17 culture, and the treatment was continued for an additional 5 days before the cells were analyzed for IL17F-RFP and FOXP3-GFP expression by high-throughput fluorescence-activated cell sorting (FACS) (FIG. 5a). […] This effect of reprogrammed differentiation was further confirmed by intracellular immunostaining of IL-17 and FOXP3 (FIG. 1a).
# [3] = test system: differentiating iTreg cells; assay: iTreg differentiation of CD4 naïve T cells (FOXP3-GFP reporter or intracellular staining of FOXP3); type: cell-based, mouse; details: for reversal of the enhancing effect of AOA on iTreg cell differentiation: in the presence of AOA, day 5, 0.5 mM α-KG, 0.125 mM 2-HG (0.25 mM in FIG. 2g), 0.5 mM succinate, 50 μM fumarate, 0.5 mM malate, 0.5 mM citrate
# Procedure: as §2, with “On day 6, the cells were analyzed for IL17F-RFP and FOXP3-GFP or the cells were collected and restimulated for 4-6 hours with PMA, inomycin, and Golgi-stop for intracellular staining in absence of indicated compounds.” left out
# [4] = test system: FOXP3 promoter and its intronic CpG island; assay: Methylation analysis by bisulfite sequencing, T cells under iTreg condition; type: cell-based, mouse; details: iTreg condition (day 5); 0.5 mM dimethyl R-2-HG or AOA; male mice
# Procedure: (§3) The method is essentially the same as described previously (Kim, et al. J Exp Med 204 (7), 1543-1551 (2007)). Briefly, genomic DNA was purified with Blood & Cell Culture DNA Midi Kit (Qiagen). Bisufite conversion of genomic DNA was performed using Epitect® bisulfite kit (Qiagen), according to the manufacture's instruction. The PCR product was run on 2% agarose, purified and cloned using TOPO® TA Cloning® Kit with PCR®4. Clones are picked for Sanger sequencing.
# [5] = test system: FOXP3, Il17, Il17f, and Rorc mRNA in TH17 cells; assay: mRNA expression analysis by qRT-PCR in TH17 cells; type: cell-based, mouse; details: normalized to β-actin
# Procedure: as §1
# [6] = test system: FOXP3 promoter and its intronic CpG island; assay: Methylation analysis by bisulfite sequencing, T cells under TH17 condition; type: cell-based, mouse; details: 0.5 mM dimethyl R-2-HG (day 4) or AOA (day 6), male mice
# Procedure: as §3
# [7] = molecular target: T1, Got1 (Mus musculus, UniProt P05201); assay: Retroviral shRNA knockdown of Got1 in differentiating TH17 cells, intracellular staining of FOXP3 and IL-17; type: cell-based; details: sorted GFP+ cells, TH17 condition, day 6; versus empty vector or GFP− cells
# T1 construct: Got1 was knocked down in differentiating TH17 cells with retrovirus containing GFP and shRNA against Got1; endogenous in cells; host or cells: primary mouse CD4 naive T cells differentiated under TH17 conditions
# T1 sequence (P05201 whole entry): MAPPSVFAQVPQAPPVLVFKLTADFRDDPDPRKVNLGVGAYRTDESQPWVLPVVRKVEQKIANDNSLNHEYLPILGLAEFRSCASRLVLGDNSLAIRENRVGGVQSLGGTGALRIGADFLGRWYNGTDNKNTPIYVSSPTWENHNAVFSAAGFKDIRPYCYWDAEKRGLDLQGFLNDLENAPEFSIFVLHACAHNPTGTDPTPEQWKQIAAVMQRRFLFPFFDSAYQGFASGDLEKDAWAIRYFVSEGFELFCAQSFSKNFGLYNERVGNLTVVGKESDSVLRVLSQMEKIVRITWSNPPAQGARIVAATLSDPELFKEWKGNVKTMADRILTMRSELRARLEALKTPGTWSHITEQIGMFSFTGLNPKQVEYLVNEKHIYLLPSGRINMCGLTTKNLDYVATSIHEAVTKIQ
# Procedure: (§4) Short hairpin RNAs (ShRNAs) (synthesized DNA oligos), after annealing, were cloned into PMKO.1-GFP retrovirus vector. The plasmids and pCL-ECO (1:1) were transfected into 293T cells with Fugene® HD4 (Promega). The medium was changed 6 hours after transfection, and the cells were further cultured for 48-72 hours. The supernatant was then collected and filtered using […]. The supernatant containing the viruses was added into pre-activated CD4+ T cells (20 hours after initial plating). The cells were spin-infected at 1000 g for 2 hours and cultured in incubator for another 2 hours. The cells were washed and cultured under TH17 conditions for an additional 4 days. New medium was added if necessary. At day 5, the cells were collected for sorting GFP+ cells and GFP− cells. Sorted cells were further cultured until day 6, and re-stimulated for intracellular staining or mRNA analysis, as described above.
# [8] = test system: IDH1 and/or IDH2 mRNA; assay: mRNA expression of IDH1 and IDH2 in shRNA-infected GFP+ cells; type: cell-based, mouse; details: GFP+ cells re-stimulated with anti-CD3 and anti-CD28; normalized to β-actin
# Procedure: as §1
# as §4, with “Sorted cells were further cultured until day 6, and re-stimulated for intracellular staining or mRNA analysis, as described above.” left out
# [9] = test system: IDH1 and IDH2; assay: Retroviral shRNA knockdown of IDH1 and/or IDH2 in T cells under TH17 condition, intracellular staining of IL-17 and FOXP3; type: cell-based, mouse; details: sorted GFP+ cells cultured under TH17 condition
# Procedure: as §4
# 2-HG, which was originally identified in cancer cells harboring isocitrate dehydrogenase (IDH) 1/2 mutation, is also known to be produced via wild-type IDH1 and IDH2 reactions as well. Among all the dehydrogenases examined in this study, only IDH1 and 2 are highly expressed in differentiating TH17 cells (FIGS. 10a, 10d). […] GFP+ cells and GFP− cells were sorted and analyzed by intracellular staining of IL-17 and FOXP3.
# [10] = re-stimulated with anti-CD3 and anti-CD28 for 5 hours
Compound,rescue of the inhibitory effect of AOA on TH17 cell differentiation [2],reversal of the enhancing effect of AOA on iTreg cell differentiation [3],percentage of IL17+ cells [7],proportion of FOXP3+ cells [7],mRNA expression of IDH1 and/or IDH2 [8],reduction of the percentage of IL-17 producing cells [9],other results
"COC(=O)CC[C@@H](O)C(=O)OC [Dimethyl R-2-HG, (R)-dimethyl 2-hydroxyglutarate]",rescued the inhibitory effect of AOA on TH17 differentiation,reversed its enhancing effect on iTreg differentiation,–,–,–,–,"FOXP3 mRNA expression [1]: suppressed FOXP3 mRNA expression; direct effect on TH17 cell differentiation (IL-17/IL-17F and FOXP3 expression) ([2]; in the absence of AOA, exogenously added dimethyl metabolite): directly promoted TH17 cell differentiation by up-regulating IL-17/IL-17F expression and down-regulating FOXP3 expression in a dose-dependent manner; FOXP3 expression under iTreg condition ([3]; in the absence of AOA, analyzed on day 5): inhibited FOXP3 expression; methylation level of FOXP3 promoter and its intronic CpG island [4]: dramatically increase methylation level; FOXP3 mRNA expression [5]: suppressed FOXP3 mRNA expression; Il17/Il17f mRNA level [5, 10]: increased Il17/Il17f mRNA; Rorc mRNA level [5, 10]: did not affect Rorc mRNA; methylation level of FOXP3 promoter and its intronic CpG island [6]: dramatically increase methylation level"
COC(=O)CCC(=O)C(=O)OC [dimethyl-α-KG],rescued the inhibitory effect of AOA on TH17 differentiation,reversed its enhancing effect on iTreg differentiation,–,–,–,–,–
GOT1-1: shRNA targeting GOT1 (SEQ ID NO: 47) in PMKO.1-GFP retrovirus vector (CCGGCCACATGAGAAGACGTTTCTTCTCGAGAAGAAACGTCTTCTCATGTGGTTTTTG),–,–,reduced,reciprocally increased,–,–,–
GOT1-2: shRNA targeting GOT1 (SEQ ID NO: 48) in PMKO.1-GFP retrovirus vector (CCGGGTCGAACAGAAGATTGCTAATCTCGAGATTAGCAATCTTCTGTTCGACTTTTTG),–,–,reduced,reciprocally increased,–,–,–
shRNA against IDH1: shRNA targeting IDH1 (SEQ ID NO: 49) in PMKO.1-GFP retrovirus vector (CCGGCCTGGGCTTAGAATGAGTCTTCTCGAGAAGACTCATTCTAAGCCCAGGTTTTTG),–,–,–,–,efficiently suppressed the mRNA expression,approximately 30%,–
shRNA against IDH2: shRNA targeting IDH2 (SEQ ID NO: 50) in PMKO.1-GFP retrovirus vector (CCGGGAAGAGTTCAAGCTGAAGAAACTCGAGTTTCTTCAGCTTGAACTCTTCTTTTTG),–,–,–,–,efficiently suppressed the mRNA expression,approximately 30%,–
